# Where “and” joins values, the source holds several entries; their conditions need not be identical. Equal values may be shown once.
# Key:
# Assay type in all cases: cell-based, human
# [1] = system: TIG‐3 embryonic fibroblasts (fetal lung); assay: cell survival (trypan blue exclusion, 5 days), TIG-3; conditions: for IC50: TIG3, cellular survival, 5 days; for Ratio of survived cells (Drugs treated/Untreated), Average / Ratio of survived cells (Drugs treated/Untreated), single passage points #: TIG-3
# Description: (§1) Modified procedures of CTOS culture 16 were described elsewhere 10. […] The culture medium was serum‐free advanced DMEM/F‐12 (GIBCO, Waltham, MA) supplemented with FGF‐2 (10 ng/mL, ReproCell, Yokohama, Japan), penicillin ([…], Wako, Osaka, Japan), streptomycin (0.1 mg/mL,Wako), gentamicin (50 μg/mL, Wako), and fungizone (0.25 μg/mL, GIBCO). DLD‐1 and HCT116 CRC cell lines were purchased from JCRB Cell Bank (Osaka, Japan) and RIKEN BioResource Center (Ibaraki, Japan), respectively. In order to estimate pharmacological side effects against normal tissues, human diploid fibroblasts were purchased (JCRB Cell Bank) as model cells. The origins of the fibroblasts were as follows: OUMS‐36 (embryo), TIG‐3 (fetal lung), TIG‐111 (dermal fibroblasts [DFs] from individual), TIG‐119 (DFs from individual), and TIG‐102 (DFs from individual). Adult DFs were purchased from Kurabo (Osaka, Japan). CRC cell lines and fibroblasts were maintained under supplier‐recommended culture conditions. Since the culture conditions are different between fibroblasts and CTOSs, we need to be cautious about the interpretation of data (i.e., lateral comparison between them). […] Colorectal CTOSs display augmented survival through maintaining epithelial structure with E‐cadherin 16. On the other hand, the establishment of conventional cell lines (adherent culture) are much less efficient because constant cell division and autonomous survival are required for the procedure. When we choose CTOSs instead of cancer cell lines, we lose the equivalent condition (adherent culture) as a trade‐off.
# (§2) Each drug's half‐maximal inhibitory concentration (IC50) was calculated based on live cell number ratios (drug treated/untreated × 100%) obtained from serial dilution of drug concentration. The length of drug exposure was 5 days. Each number of live cells was counted automatically by trypan blue exclusion (LUNA automated cell counter, Logos Biosystems, Anyang, South Korea). Cancer spheroids were dispersed with serial treatments (20 min each) of TrypLE™ and Accumax™. Thus, IC50 was determined based on cellular survival, but not on proliferation. We chose the survival index instead of the speed of growth because CTOSs in vitro show very slow proliferation (quiescence), which is one of the hallmarks of CSCs 2. The IC50 values of fibroblasts were accordingly determined based on cellular survival index during quiescence (by contact inhibition). […] To quantify the synergism of two distinct drugs, Combination Index (CI) was calculated 21. A CI value of about 1 (0.90–1.10) was defined as nearly additive and CI values more than (>1.10) and less than (<0.90) were defined as antagonism and synergism, respectively. IC50 and CI were determined using CompuSyn software (ComboSyn, Paramus, NK).
# [2] = system: DF adult dermal fibroblasts; assay: cell survival (trypan blue exclusion, 5 days), DF; conditions: for IC50: cellular survival, 5 days
# Description: as §1, §2
# [3] = system: TIG‐102 dermal fibroblasts; assay: cell survival (trypan blue exclusion, 5 days), TIG-102; conditions: for IC50: TIG102, cellular survival, 5 days; for Ratio of survived cells (Drugs treated/Untreated), Average / Ratio of survived cells (Drugs treated/Untreated), single passage points #: TIG-102
# Description: as §1, §2
# [4] = system: CTOS76 colorectal cancer tissue‐originated spheroids; assay: cell survival (trypan blue exclusion, 5 days), CTOS76; conditions: for IC50: CTOS76, cellular survival, 5 days
# Excerpt: All experimental procedures were approved by the animal facility at Dokkyo Medical University (ID: 951) and were described elsewhere 10. The existence of CSCs has been experimentally proven through serial xenotransplantation and tumorigenesis 2, 14. […] These subcutaneous tumors were again subjected to enzymatic dissociation and some of the tumor cells were subcutaneously transplanted into other mice. […] Seven cases (CTOS:40, 42, 68, 71, 76, 86, 88) were used for in vitro experiments.
# as §1
# Each drug's half‐maximal inhibitory concentration (IC50) was calculated based on live cell number ratios (drug treated/untreated × 100%) obtained from serial dilution of drug concentration. The length of drug exposure was 5 days. Each number of live cells was counted automatically by trypan blue exclusion (LUNA automated cell counter, Logos Biosystems, Anyang, South Korea). Cancer spheroids were dispersed with serial treatments (20 min each) of TrypLE™ and Accumax™. Thus, IC50 was determined based on cellular survival, but not on proliferation.
# HCT116 CRC cell line = assay: intracellular ROS, CellROX Deep Red flow cytometry, HCT116; conditions: treated 1 h (menadione 100 μmol/L, 30 min)
# Description: In order to estimate the effect of each inhibitor described above, intracellular reactive oxygen species (ROS) were measured using CellROX™ Deep Red reagent (Molecular Probes). Briefly, cells were seeded on 6‐well plates at 1 × 10^6 cells per well. After cells reached 90% confluence, cells were treated with designated reagents for 1 h. CellROX™ Deep Red reagent was added at a final concentration of 5 μmol/L to the culture medium and then incubated for 30 min at 37°C. Subsequently, the medium was removed and the cells were washed with PBS and detached using 0.25% trypsin‐EDTA. The resulting fluorescence was measured using a FACS Calibur flow cytometer (Becton Dickinson, Franklin Lakes, NJ). Menadione (100 μmol/L) was added 30 min before CellROX™ Deep Red reagent treatment as a reference ROS inducer. […] CD44v9 positivity of CTOS cells was analyzed as follows: Cancer spheroids were dispersed with serial treatments of TrypLE™ (20 min, GIBCO) and Accumax™ (10 min, Innovative Cell Technologies, San Diego, CA). Cell surface CD44v9 was stained with CD44v9 antibody (Cosmobio) as well as PE‐conjugated anti‐rat IgG2a (Becton Dickinson). The fluorescence was measured using a FACS Calibur flow cytometer (Becton Dickinson). Since CTOSs contained abundant auto‐fluorescent cells, we defined FL2^+FL1^− cells as authentic PE‐positive (Fig. S4). Thus, CD44v9‐positive rate was defined as FL2^+FL1^−/total live cells and CD44v9‐positive fraction was further gated and split between CD44v9^low and CD44v9^high (Fig. S4), to calculate the mean fluorescent intensity of CD44v9^high fraction.
# One hour after each drug treatment, cells were stained with CellROX DeepRed and intracellular ROS were quantified with FACS. Upper: histogram of fluorescent signal is represented. Lower. representative mean fluorescent intensity scores are shown. Note that without drug treatment (Control), intracellular ROS is higher in OUMS36 and TIG3 (embryonic fibroblasts) but lower in DLD-1 and HCT116 (CRC cell lines). ROS in DLD-1 was increased by auranofin. ROS in HCT116 was increased by all the inhibitors tested. Menadione was used as a reference chemical to increase ROS.
# [5] = system: phosphorylated NRF2 in embryonic fibroblasts (OUMS and TIG3); assay: NRF2 phosphorylation by western blotting, embryonic fibroblasts; conditions: 24 hours, Auranofin 2µM, Piperlongumine 5µM
smiles,measurement,setting,value
"CC[PH](CC)(CC)[Au][S][C@@H]1O[C@H](COC(C)=O)[C@@H](OC(C)=O)[C@H](OC(C)=O)[C@H]1OC(C)=O [Aura, Auranofin]",IC50,[1],1.96 µM
same,"Ratio of survived cells (Drugs treated/Untreated), Average",[1]; Aura 1 microM,83.1429%
same,"Ratio of survived cells (Drugs treated/Untreated), Average",[1]; Aura 2 microM,61.4286%
same,"Ratio of survived cells (Drugs treated/Untreated), Average",[1]; Aura 4 microM,9.571%
same,"Ratio of survived cells (Drugs treated/Untreated), Average",[2]; Aura 1 microM,88.25%
same,"Ratio of survived cells (Drugs treated/Untreated), Average",[2]; Aura 2 microM,33%
same,"Ratio of survived cells (Drugs treated/Untreated), single passage points #",[2]; Aura 2 microM,38% and 32% and 36% and 26%
same,"Ratio of survived cells (Drugs treated/Untreated), Average",[2]; Aura 4 microM,0%
same,"Ratio of survived cells (Drugs treated/Untreated), single passage points #",[2]; Aura 4 microM,0%
same,IC50,[2],1.59 µM
same,IC50,[3],1.09 µM
same,"Ratio of survived cells (Drugs treated/Untreated), Average",[3]; Aura 1 microM,48.5%
same,"Ratio of survived cells (Drugs treated/Untreated), single passage points #",[3]; Aura 1 microM,44% and 53%
same,"Ratio of survived cells (Drugs treated/Untreated), Average",[3]; Aura 2 microM,21%
same,"Ratio of survived cells (Drugs treated/Untreated), Average",[3]; Aura 4 microM,0%
same,"Ratio of survived cells (Drugs treated/Untreated), single passage points #",[3]; Aura 4 microM,0%
same,IC50,[4],2.83 µM
same,"Ratio of survived cells (Drugs treated/Untreated), Average","[4]; CTOS#76, Aura 1 microM",68.4%
same,"Ratio of survived cells (Drugs treated/Untreated), Average","[4]; CTOS#76, Aura 2 microM",56.4%
same,"Ratio of survived cells (Drugs treated/Untreated), Average","[4]; CTOS#76, Aura 4 microM",39.5%
same,"Ratio of survived cells (Drugs treated/Untreated), single passage points #","[4]; CTOS#76, Aura 4 microM",36% and 56% and 30%
same,intracellular ROS response,HCT116 CRC cell line,increase of ROS
same,NRF2 phosphorylation,[5],less efficiently phosphorylated
"COc1cc(/C=C/C(=O)N2CCC=CC2=O)cc(OC)c1OC [Pipe, Piperlongumine]",IC50,[1],10.6 µM
same,"Ratio of survived cells (Drugs treated/Untreated), Average",[1]; Pipe 2.5 microM,111.833%
same,"Ratio of survived cells (Drugs treated/Untreated), single passage points #",[1]; Pipe 2.5 microM,107% and 154% and 95% and 81% and 127%
same,"Ratio of survived cells (Drugs treated/Untreated), Average",[1]; Pipe 5 microM,79.5%
same,"Ratio of survived cells (Drugs treated/Untreated), single passage points #",[1]; Pipe 5 microM,82% and 60% and 112% and 58% and 92% and 73%
same,"Ratio of survived cells (Drugs treated/Untreated), Average",[1]; Pipe 10 microM,64%
same,"Ratio of survived cells (Drugs treated/Untreated), Average",[2]; Pipe 2.5 microM,94.8333%
same,"Ratio of survived cells (Drugs treated/Untreated), Average",[2]; Pipe 5 microM,80.3333%
same,"Ratio of survived cells (Drugs treated/Untreated), single passage points #",[2]; Pipe 5 microM,81% and 80% and 83% and 109% and 67% and 62%
same,"Ratio of survived cells (Drugs treated/Untreated), Average",[2]; Pipe 10 microM,12.5%
same,IC50,[2],6.3 µM
same,IC50,[3],7.89 µM
same,"Ratio of survived cells (Drugs treated/Untreated), Average",[3]; Pipe 2.5 microM,105.667%
same,"Ratio of survived cells (Drugs treated/Untreated), single passage points #",[3]; Pipe 2.5 microM,83% and 86% and 148%
same,"Ratio of survived cells (Drugs treated/Untreated), Average",[3]; Pipe 5 microM,86.3333%
same,"Ratio of survived cells (Drugs treated/Untreated), single passage points #",[3]; Pipe 5 microM,54% and 100% and 105%
same,"Ratio of survived cells (Drugs treated/Untreated), Average",[3]; Pipe 10 microM,27.6667%
same,IC50,[4],7.15 µM
same,"Ratio of survived cells (Drugs treated/Untreated), Average","[4]; CTOS#76, Pipe 2.5 microM",81.75%
same,"Ratio of survived cells (Drugs treated/Untreated), Average","[4]; CTOS#76, Pipe 5 microM",73%
same,"Ratio of survived cells (Drugs treated/Untreated), Average","[4]; CTOS#76, Pipe 10 microM",32.3333%
same,intracellular ROS response,HCT116 CRC cell line,increase of ROS
same,NRF2 phosphorylation,[5],not
same,NRF2 phosphorylation,[5]; listed as Piperlongmine,almost negligible

# — article PMC5055185, “Dual pharmacological inhibition of glutathione and thioredoxin systems synergizes to kill colorectal carcinoma stem cells” (Cancer Medicine, 2016)
